What was measured:
Assay type in all cases: in vivo
rat [1] = experiment: Carrageenin pleurisy assay (CPA), acute anti-inflammatory activity; conditions: dose required to reduce the 3 hour exudate volume by 50%
Procedure: Following the procedure described by Vinegar et al. in Proc.Soc.Exp.Biol.Med. 151, 556, (1976), the actue anti-inflammatory activityof compounds of formula (I) was compared with that of known anti-inflammatory drugs in the rat. The average 3 hour exudate volume for each drug treated group was determined and the % inhibition relative to solvent-fed control animals calculated, the ED50 being the dose required to reduce the 3 hour exudate volume by 50%.

[2] = Modified trypsin hyperalgesic assay (THA); conditions: 1 h; analgesia; pain scores determined 60 minutes after trypsin injection
Procedure: The procedure described by Vinegar et al. in Eur. J] […] The analgesic agents were administered 30 minutes after the administration of trypsin. In addition, a modification of Vinegar's published assay was carried out, comprising the administration of analgesic agent preceding subplantar injectin of trypsin (0.10 ml) of 10% solution of trypsin in pyrogen-free water by 15 minutes. In both THA's, pain scores were determined 60 minutes after trypsin injection. The results of the modification was to increase the sensitivity of the THA to the mild analgesic action of the agents.

rat [3] = experiment: Rat hot plate assay; conditions: po, 1 h, administered orally by gavage 60 min prior to testing, protected = no response within 18.3 seconds
Text: The rat hot plate assay incorporated 2 modifications of the mouse hot plate assay originally described by Eddy et al, J. Pharmacol. Exp. Ther. 98, 121-137 (1950). The first modification was enlargement of the diameter of the cylindrical (water filled) copper plate to 25.0 cm to accommodate rats instead of mice.
The second modification was the use of a temperature controller to regulate a 250 watt infrared heat lamp which was activated via a thermistor probe attached to the undersurface of the top of the copper plate. The surface temperature was thus maintained at 45 + 1.0°C (N=28 measurements of the hot plate temperature under experimental conditions). The time in which a rat placed on the hotplate responded by lifting, shaking or licking either or its hind or forelimbs was recorded in tenths of a second.
Only animals responding in pretest within 6-13 seconds were used in the studies. Drugs were suspended in 0.5% sodium carboxymethylcellulose and administered orally, by gavage, in a volume of 1.00 ml/100 g.b wt. 60 min prior to testing. […] The reaction time of 18.3 seconds represented the sum of the mean protest times of 40 untreated rats plus the time of 3 standard deviations of the mean.ED50's and their standard errors were estimated from a graph of the dose-response curves using the method of Miller and Tainter (Proc.Soc.Exp.Biol.Med. 57, 261-262 (1944). Following this procedure the analgesic activity of the compounds of formula (I) was compared to that of standard analgesic drugs.

Row | SMILES | ED50 (rat [1]) | ED50 [2] | ED50 (rat [3])
1 | Cc1cccnc1N1CCCC1=O [Example 24, 1-(3-methyl-2-pyridyl)-pyrrolidin-2-one] | 29 mg/kg |  | 
2 | O=C1CCCN1c1ccccn1 [Example 21, 1-(2-pyridyl)-pyrrolidin-2-one] | 41 mg/kg |  | 
3 | C#CCOc1ccccc1N1CCCC1=O [Example 27, 1-(2-(propyl-yn-yloxy)phenyl)-pyrrolidin-2-one] | 35 mg/kg | 40 mg/kg | 
4 | O=C1CCCN1c1ccc2[nH]ncc2c1 [Example 7, 1-(1H-indazol-5-yl)-pyrrolidin-2-one] | 34 mg/kg | 45 mg/kg | 30 mg/kg
5 | COc1cc(OC)cc(N2CCCC2=O)c1 [Example 10, 1-(3,5-dimethoxyphenyl)-pyrrolidin-2-one] | 95 mg/kg |  | 
6 | O=C(O)COc1ccccc1N1CCCC1=O [Example 37, 2-(2-oxy-1-pyrrolidinyl)phenoxyacetic acid] | 50 mg/kg |  | 
7 | O=C(O)CCCNc1ccc2c(c1)OCO2 [Example 5, 4-(1,3-benzodioxol-5-yl)amino butyric acid] | 42 mg/kg | 60 mg/kg | 120 mg/kg
8 | CCOc1ccc(N2CCCC2=O)cc1OCC [Example 18, 1-(3,4-diethoxyphenyl)-pyrrolidin-2-one] | 19 mg/kg |  | 
9 | C#CC(C)Oc1ccccc1N1CCCC1=O (stereo not shown) [Example 31, 1-(2-(1-methyl-prop-2-yn-yl)oxyphenyl)-pyrrolidin-2-one] | 39 mg/kg |  | 
10 | COc1ccc(OC)c(N2CCCC2=O)c1 [Example 6, 1-(2,5-dimethoxyphenyl)-pyrrolidin-2-one] | 80 mg/kg |  | 
11 | CC1CCN(c2ccc3c(c2)OCO3)C1=O (stereo not shown) [Example 26, 1-(1,3-benzodioxol-5-yl)-3-methyl-pyrrolidin-2-one] | 39 mg/kg |  | 
12 | C[C@@H]1CN(c2ccc3c(c2)OCO3)C(=O)[C@H]1C (relative stereo) [Example 4, trans-1-(1,3-benzodioxol-5-yl)-3,4-dimethyl-pyrrolidin-2-one] | 75 mg/kg | 46 mg/kg | 
13 | C=CCOc1ccccc1N1CCCC1=O [Example 28, 1-(2-allyloxyphenyl)-pyrrolidin-2-one] | 62 mg/kg |  | 120 mg/kg
14 | CCc1cccc(N2CCCC2=O)c1 [Example 20, 1-(3-ethylphenyl)-pyrrolidin-2-one] | 78 mg/kg |  | 
15 | CC1CC(=O)N(c2ccc3c(c2)OCO3)C1 (stereo not shown) [Example 1, 1-(1,3-benzodioxol-5-yl)-4-melhyl-pyrrolidin-2-one] | 96 mg/kg | 80 mg/kg | 120 mg/kg
16 | C=CCOc1ccc(N2CCCC2=O)cc1 [Example 2, 1-(4-allyloxyphenyl)-pyrrolidin-2-one] | 57 mg/kg |  | 
